Experimental data as given in patent publication US12371428B2 (Exelixis, Inc., priority 2019, dated 2025).
pIC50: −log10 of the molar value. Counter-ions that a name gives are not always drawn.

Tests used:
[1] = target: KDR (phospho-KDR, VEGF165-stimulated HUVEC cells) (Homo sapiens (Human), UniProt P35968); experiment: KDR autophosphorylation ELISA in HUVEC cells (Example G); format: cell-based; conditions: cellular activity; KDR autophosphorylation ELISA in HUVEC cells
How it was run: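 Read-out: phospho-KDR in cell lysates by DuoSet IC ELISA, normalised between VEGF-stimulated DMSO wells (100%) and unstimulated wells (0%). Human endothelial cells were starved overnight in serum-free medium, exposed to compound for 1 h, and then pulsed with 100 ng/mL VEGF165 for 5 min.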

[2] = target: Human MER (residues 528-999) (Homo sapiens (Human), UniProt Q12866); experiment: Human Mer kinase assay, HTRF KinEase (Example C-2); format: biochemical; conditions: protocol of Example C-2 (other compounds)
How it was run: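 Recombinant MER 528-999 (1 ng/well) in buffer with 5 mM MgCl2 and 1 mM DTT was reacted with biotinylated peptide and ATP at Km (40 μM) for 60 min at room temperature. EDTA stop with SA-XL665 and Eu3+ TK antibody, then 665/620 nm HTRF read; IC50 from 4-parameter fit.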

[3] = target: Human MET (residues 956-1390) (Homo sapiens (Human), UniProt P08581); experiment: Human Met kinase assay, HTRF KinEase (Example D-2); format: biochemical; conditions: protocol of Example D-2 (other compounds); read-out: c-Met IC50
How it was run: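 MET kinase domain (956-1390), 0.1 ng/well, in buffer with 5 mM MgCl2, 1 mM DTT and 1 mM MnCl2, phosphorylated a biotinylated peptide at ATP Km for 40 min at RT; 10 concentrations, 3% DMSO final. EDTA-stopped HTRF read after 60 min; IC50 from a 4-parameter logistic fit.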

Sequence of Human MER (residues 528-999) (Q12866 528-999): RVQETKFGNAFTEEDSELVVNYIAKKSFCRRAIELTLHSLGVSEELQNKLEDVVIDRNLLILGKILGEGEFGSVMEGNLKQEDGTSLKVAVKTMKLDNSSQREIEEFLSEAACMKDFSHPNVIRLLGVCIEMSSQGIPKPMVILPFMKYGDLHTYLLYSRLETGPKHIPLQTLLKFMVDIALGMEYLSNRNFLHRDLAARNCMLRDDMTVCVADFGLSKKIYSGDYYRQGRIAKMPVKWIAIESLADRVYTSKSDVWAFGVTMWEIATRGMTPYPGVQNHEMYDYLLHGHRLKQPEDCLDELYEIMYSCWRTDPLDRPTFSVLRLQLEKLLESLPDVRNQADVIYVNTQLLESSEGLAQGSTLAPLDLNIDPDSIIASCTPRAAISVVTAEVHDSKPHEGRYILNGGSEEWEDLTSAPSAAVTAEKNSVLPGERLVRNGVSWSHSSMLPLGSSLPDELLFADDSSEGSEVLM
Sequence of KDR (phospho-KDR, VEGF165-stimulated HUVEC cells) (P35968 20-1356): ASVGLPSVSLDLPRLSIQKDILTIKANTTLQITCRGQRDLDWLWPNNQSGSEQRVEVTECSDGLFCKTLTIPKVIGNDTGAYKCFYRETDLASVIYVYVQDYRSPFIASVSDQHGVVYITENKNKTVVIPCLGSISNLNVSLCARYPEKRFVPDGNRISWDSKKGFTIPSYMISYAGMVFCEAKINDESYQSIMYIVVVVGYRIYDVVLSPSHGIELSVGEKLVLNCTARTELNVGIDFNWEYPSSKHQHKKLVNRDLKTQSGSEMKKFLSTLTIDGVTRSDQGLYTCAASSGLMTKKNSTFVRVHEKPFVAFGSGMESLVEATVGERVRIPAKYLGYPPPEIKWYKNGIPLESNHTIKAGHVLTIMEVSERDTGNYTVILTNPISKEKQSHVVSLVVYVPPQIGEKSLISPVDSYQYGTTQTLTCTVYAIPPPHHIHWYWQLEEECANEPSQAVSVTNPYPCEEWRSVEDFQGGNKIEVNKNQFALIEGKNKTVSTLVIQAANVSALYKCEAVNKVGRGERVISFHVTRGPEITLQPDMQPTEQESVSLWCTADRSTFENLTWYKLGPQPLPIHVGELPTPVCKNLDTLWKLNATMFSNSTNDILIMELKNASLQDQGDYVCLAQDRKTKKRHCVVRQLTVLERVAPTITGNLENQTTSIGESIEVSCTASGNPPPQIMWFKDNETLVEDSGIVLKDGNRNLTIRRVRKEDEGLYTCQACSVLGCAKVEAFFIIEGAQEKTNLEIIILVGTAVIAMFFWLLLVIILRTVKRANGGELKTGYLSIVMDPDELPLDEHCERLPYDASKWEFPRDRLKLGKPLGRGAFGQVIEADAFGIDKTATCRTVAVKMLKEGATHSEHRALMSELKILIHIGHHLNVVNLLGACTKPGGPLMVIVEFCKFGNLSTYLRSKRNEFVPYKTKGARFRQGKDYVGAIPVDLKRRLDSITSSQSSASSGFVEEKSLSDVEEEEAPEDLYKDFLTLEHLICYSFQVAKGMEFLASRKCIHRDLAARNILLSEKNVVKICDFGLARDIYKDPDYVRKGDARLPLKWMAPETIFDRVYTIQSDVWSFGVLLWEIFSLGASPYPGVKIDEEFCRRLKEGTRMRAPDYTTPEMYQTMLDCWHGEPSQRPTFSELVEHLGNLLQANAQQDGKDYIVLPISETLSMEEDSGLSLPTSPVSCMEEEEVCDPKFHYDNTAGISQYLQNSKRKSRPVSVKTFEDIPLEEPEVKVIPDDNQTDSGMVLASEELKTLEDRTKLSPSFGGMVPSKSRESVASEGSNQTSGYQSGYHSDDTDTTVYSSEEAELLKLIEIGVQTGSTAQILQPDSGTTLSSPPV
Sequence of Human MET (residues 956-1390) (P08581 956-1390): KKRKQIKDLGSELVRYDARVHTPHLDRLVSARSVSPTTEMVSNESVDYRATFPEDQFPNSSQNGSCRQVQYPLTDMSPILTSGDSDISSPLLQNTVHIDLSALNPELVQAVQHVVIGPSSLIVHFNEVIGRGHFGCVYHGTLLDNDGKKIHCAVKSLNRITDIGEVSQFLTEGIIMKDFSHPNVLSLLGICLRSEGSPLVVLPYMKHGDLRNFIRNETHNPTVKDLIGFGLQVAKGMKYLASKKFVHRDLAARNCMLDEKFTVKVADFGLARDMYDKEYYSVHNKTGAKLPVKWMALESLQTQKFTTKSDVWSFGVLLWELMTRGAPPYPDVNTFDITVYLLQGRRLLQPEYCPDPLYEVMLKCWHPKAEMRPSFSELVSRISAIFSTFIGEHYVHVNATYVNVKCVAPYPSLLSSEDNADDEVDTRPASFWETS

pIC50 [1]	pIC50 [2]	pIC50 [3]	SMILES
< 6.52	> 7.00	> 7.00	COc1cnc2c(Oc3ccc(NC(=O)c4cn(C)c(CO)c(-c5ccc(F)cc5)c4=O)cc3)ccnc2c1 [Compound 223, 5-(4-Fluorophenyl)-6-(hydroxymethyl)-N-[4-[(7-methoxy-1,5-naphthyridin-4-yl)oxy]phenyl]-1-methyl-4-oxopyridine-3-carboxamide]
6.52 to 7.00	> 7.00	> 7.00	COc1cc2nccc(Oc3ccc(NC(=O)c4cn(C)c(CO)c(-c5ccc(F)cc5)c4=O)cc3)c2nc1OC [Compound 221, N-[4-[(6,7-Dimethoxy-1,5-naphthyridin-4-yl)oxy]phenyl]-5-(4-fluorophenyl)-6-(hydroxymethyl)-1-methyl-4-oxopyridine-3-carboxamide]
> 7.00	> 7.00	> 7.00	COc1cnc2c(Oc3ccc(NC(=O)c4n[nH]c(C)c(-c5ccc(F)cc5)c4=O)cc3)ccnc2c1 [Compound 245, 5-(4-Fluorophenyl)-N-[4-[(7-methoxy-1,5-naphthyridin-4-yl)oxy]phenyl]-6-methyl-4-oxo-1H-pyridazine-3-carboxamide]
> 7.00	> 7.00	> 7.00	COc1ccc2nccc(Oc3ccc(NC(=O)c4cnc(CO)c(-c5ccc(F)cc5)c4O)cc3F)c2n1 [Compound 231, N-[3-Fluoro-4-[(6-methoxy-1,5-naphthyridin-4-yl)oxy]phenyl]-5-(4-fluorophenyl)-4-hydroxy-6-(hydroxymethyl)pyridine-3-carboxamide]
> 7.00	> 7.00	> 7.00	COc1cnc2c(Oc3ccc(NC(=O)c4ccc(C)n(-c5ccc(F)cc5C)c4=O)cc3)ccnc2c1 [Compound 226, 1-(4-Fluoro-2-methylphenyl)-N-[4-[(7-methoxy-1,5-naphthyridin-4-yl)oxy]phenyl]-6-methyl-2-oxopyridine-3-carboxamide]

Second part, the compound before the results:

SMILES	pIC50 [1]	pIC50 [2]	pIC50 [3]
COCCOc1nc2c(Oc3ccc(NC(=O)c4c(COC)nc(C)c(-c5ccc(F)cc5)c4O)cc3F)ccnc2cc1OC [Compound 199, N-[3-Fluoro-4-[[7-methoxy-6-(2-methoxyethoxy)-1,5-naphthyridin-4-yl]oxy]phenyl]-5-(4-fluorophenyl)-4-hydroxy-2-(methoxymethyl)-6-methylpyridine-3-carboxamide]	> 7.00	> 7.00	> 7.00
COCc1nc(C)c(-c2ccc(F)cc2C)c(O)c1C(=O)Nc1ccc(Oc2ccnc3cc(OC)c(OC)nc23)c(F)c1 [Compound 191, N-[4-[(6,7-Dimethoxy-1,5-naphthyridin-4-yl)oxy]-3-fluorophenyl]-5-(4-fluoro-2-methylphenyl)-4-hydroxy-2-(methoxymethyl)-6-methylpyridine-3-carboxamide]	> 7.00	> 7.00	> 7.00
COc1cc2nccc(Oc3ccc(NC(=O)c4cn(C)cc(-c5cccc(F)c5)c4=O)cc3F)c2nc1OC [Compound 35, N-[4-[(6,7-Dimethoxy-1,5-naphthyridin-4-yl)oxy]-3-fluorophenyl]-5-(3-fluorophenyl)-1-methyl-4-oxopyridine-3-carboxamide hydrochloride]	> 7.00	> 7.00	> 7.00
COc1cnc2c(Oc3ccc(NC(=O)c4ccc(C)n(-c5ccc(F)cc5)c4=O)cc3)ccnc2c1 [Compound 216, 1-(4-Fluorophenyl)-N-[4-[(7-methoxy-1,5-naphthyridin-4-yl)oxy]phenyl]-6-methyl-2-oxopyridine-3-carboxamide]	> 7.00	> 7.00	> 7.00
COc1cnc2c(Oc3ccc(NC(=O)c4ccc(C)n(-c5ccc(F)cc5C)c4=O)cc3F)ccnc2c1 [Compound 220, N-[3-Fluoro-4-[(7-methoxy-1,5-naphthyridin-4-yl)oxy]phenyl]-1-(4-fluoro-2-methylphenyl)-6-methyl-2-oxopyridine-3-carboxamide]	> 7.00	> 7.00	> 7.00
